Results: patent EP0560274B1, “Antiherpes peptide derivatives having a ureido N-terminus” (priority 1992, dated 1993)
*1 amine or outer side, *2 acyl side, *3 side chain or, on linkers, in order; H or OH if unused. Where a SMILES comes first, the peptide text is derived from it. [ ]: non-standard residue; d: D form. The star is where a group is joined. Asp(3,3-(CH2)4) = N[C@H](C(=O)O)C1(C(=O)O)CCCC1; tBuAla = CC(C)(C)C[C@H](N)C(=O)O; Tle = CC(C)(C)[C@H](N)C(=O)O; Pyrrolidide = C1CCN(*)C1; CO = O=C([*:1])[*:2]; X3 = CCCC(C)(C)N*

What follows are molecules tested on Herpes Simplex Virus (HSV-2). Conditions: 29 h.
Format: cell-based
Description: BHK-21/C13 cells (ATCC CCL 10) are incubated for two days in 150 cm^2 T-flasks (1.5 x 10^6 cells/flask) with alpha-MEM medium (Gibco Canada Inc., Burlington, Ontario, Canada) supplemented with 8% (v/v) fetal bovine serum (FBS, Gibco Canada Inc.). The cells are trypsinized and then transferred to fresh media in a 24 well plate to give 2.5 x 10^5 cells in 750 µL of media per well. The cells are incubated at 37° for a period of 6 h to allow them to adhere to the plate. Thereafter, the cells are washed once with 500 µL of alpha-MEM supplemented with 0.5% (v/v) FBS and then incubated with 750 µL of the same media (low serum) for 3 days. After this period of serum starvation, the low serum medium is removed and the cells are incubated in 500 µL of BBMT for 2 to 3 hours. {BBMT medium is described by P. Brazeau et al., Proc. Natl. Acad. Sci. USA, 79, 7909 (1982).} Thereafter, the cells are infected with HSV-2 (multiplicity of infection = 0.02 PFU/cell) in 100 µL of BBMT medium. (Note: The HSV-2 used was strain HG-52, see Y. Langelier and G. Buttin, J. Gen. Virol., 57, 21 (1981); the virus was stored at -80°.) Following 1 h of virus adsorption at 37°, the media is removed and the cells are washed with BBMT (3 X 250 µL). The cells in each well are incubated with or without (control) appropriate concentrations of the test agent dissolved in 200 µL of BBMT medium. After 29 h of incubation at 37°, the infected cells are harvested by first freezing the plate at -80°, followed by thawing. The cells in each well are scraped off the surface of the well with the help of the melting ice fragments. After complete thawing, the cell suspensions are collected and each well is rinsed with 150 µL of BBMT medium. The viral sample (suspension plus washing) is sonicated gently for 4 min at 4°. Cell debris are removed by centrifugation (1000 times gravity for 10 minutes at 4°). The supernatant is collected and stored at -80° until determination of viral titer.
Viral titration was performed by a modification of the colorimetric assay method of M. Langlois et al., Journal of Biological Standardization, 14, 201 (1986).
More specifically, in a similar manner as described above, BHK-21/C13 cells are trypsinized and transferred to fresh media in a 96 well microtiter plate to give 20,000 cells in 100 µL of media per well. The cells in the prepared plate are incubated at 37° for, 2 h. During that time, the viral sample is thawed and sonicated gently for 15 seconds, and log dilutions of the sample are prepared (1/5 sequential: 50 µL of the sample plus 200 µL of BBMT medium, sequential dilutions being done with a multichannel pipette.
On completion of the above 2 hour incubation of the BHK-21/C13 cells, the media is replaced with alpha-MEM medium supplemented with 3% (v/v) FBS. The cells are now ready to be infected with the various sample dilutions of virus. Aliquots (50 µL) of the various dilutions are transferred into the appropriate wells of the plate. The resulting infected cells are incubated for 2 days at 37°. Then 50 µL of a 0.15% (v/v) solution of neutral red dye in Hank's Balanced Salt Solution (pH 7.3, Gibco Canada Inc.) is added to each well. The prepared plate is incubated for 45 min at 37°. Medium from each well is then aspirated and the cells are washed once with 200 µL of Hank's Balanced Salt Solution. After the wash, the dye is released from the cells by the addition of 100 µL of a 1:1 mixture of 0.1 M Sorensen's citrate buffer (pH 4.2) and ethanol. {Sorensen's citrate buffer is prepared as follows: Firstly, a 0.1 M disodium citrate solution is prepared by dissolving citric acid monohydrate (21 g) in 1 N aqueous NaOH (200 mL) and adding sufficient filtered H2O to make 1 L. Secondly, the 0.1 M disodium citrate solution (61.2 mL) is mixed with 0.1 N aqueous HCl (38.8 mL) and the pH of the resulting solution is adjusted to 4.2 if necessary.} The mixture in the wells is subjected to a gentle vortex action to ensure proper mixing.
For `CCCC(CCC)NC(=O)N[C@H](C(=O)N[C@@H](CC(=O)C1CCCCC1)C(=O)N[C@H](C(=O)NCC(C)(C)C)C1(C(=O)O)CCCC1)C(C)(C)C` [Pr2CHNHC(O)-Tbg-NHCH(2-cyclohexyl-2-oxoethyl)C(O)-Asp(cyPn)-NHCH2CMe3], the EC50 was 140 µM.
`CCCC(CCC)NC(=O)N[C@H](C(=O)N[C@@H](CC(=O)C1CCCC1)C(=O)N[C@H](C(=O)NCC(C)(C)C)C1(C(=O)O)CCCC1)C(C)(C)C` [Pr2CHNHC(O)-Tbg-NHCH(2-cyclopentyl-2-oxoethyl)C(O)-Asp(cyPn)-NHCH2CMe3] showed an EC50 of 90 µM.
Molecule `CCCC(CCC)NC(=O)N[C@H](C(=O)N[C@@H](CC(=O)C(CC)CC)C(=O)N[C@H](C(=O)NCC(C)(C)C)C1(C(=O)O)CCCC1)C(C)(C)C` [Pr2CHNHC(O)-Tbg-NHCH(3-ethyl-2-oxopentyl)CO-Asp(cyPn)-NHCH2CMe3] has an EC50 of 25 µM.
Work on `CCCC(C)(C)NC(=O)N[C@H](C(=O)N[C@@H](CC(=O)N1CCCC1)C(=O)N[C@H](C(=O)N[C@@H](CC(C)(C)C)C(=O)O)C1(C(=O)O)CCCC1)C(C)(C)C` [PrMe2CNHC(O)-Tbg-Asp(pyrrolidino)-Asp(cyPn)-γMeLeu-OH] ({X3-CO}-[Tle]D(Pyrrolidide)[Asp(3,3-(CH2)4)][tBuAla]-OH) yielded an EC50 of 110 µM.
With `CCCC(CCC)NC(=O)N[C@H](C(=O)N[C@@H](CC(=O)N1CCCC1)C(=O)N[C@H](C(=O)N[C@H](CO)CC(C)(C)C)C1(C(=O)O)CCCC1)C(C)(C)C` [Title Compound of Example 8, Pr2CHNHC(O)-Tbg-Asp(pyrrolidino)-Asp(cyPn)-γMeLeucinol] the EC50 was 75 µM.
